{"source": "patent US20040162297A1", "about": "“Adenosine derivative in polymorph I form” (priority 2001, published 2004)", "test": "stability of the polymorphic form at ambient temperatures", "format": "physicochemical", "data": [{"smiles": "CC(C)(C)c1nnc([C@H]2O[C@@H](n3cnc4c(Nc5ccc(Cl)cc5F)ncnc43)[C@H](O)[C@@H]2O)o1", "note": "[Polymorph I, (2S,3S,4R,5R)-2-(5-tert-butyl-[1,3,4]-oxadiazol-2-yl)-5-[6-(4-chloro-2-fluorophenylamino)-9H-purin-9-yl]-tetrahydrofuran-3,4-diol]", "values": [{"measurement": "stability at ambient temperatures", "value": "particular stability"}]}]}
